Test results: patent US20130303575A1, “ADMINISTRATION OF AN INHIBITOR OF HDAC” (priority 2007, published 2013)
“Also recorded” adds a separate entry of the source. Marks after values point to notes of the source that are not given here.

Experiments:
[1] = Safety, DLT, MTD and adverse events in patients with advanced solid tumors or lymphoma (Example 2); format: in vivo
Source text: DLT was defined as first course adverse events […] hematologic toxicity. The MTD was defined as one dose level below the dose at which […] of six patients experienced DLT.
Dose reduction by one level was applied for the occurrence of either grade 3 nonhematologic toxicity, grade 4 hematologic toxicity, persistent (≦2 weeks) grade 2 nonhematologic toxicity, or per the investigator's assessment. […] No limitation for the number of dose reductions was chosen.
At study entry, history, physical examination, laboratory studies (CBC, electrolytes, creatinine, blood urea nitrogen, total and direct bilirubin, ALT, AST, alkaline phosphatase, uric acid, prothrombin time, partial thromboplastin time, and urinalysis), computed tomography scan and chest x-ray and ECG were performed. Clinical assessments, including a physical examination and adverse event evaluation, were conducted at each follow-up. Adverse events were graded by the NCI Common Toxicity Criteria (version 2.0). Computed tomography scans and staging was performed every 6 weeks for the q14-day schedule. Disease-specific staging techniques, such as bone marrow aspirate and biopsy, flow cytometry, cutaneous lesion photography, or bone scan were used as indicated. Response evaluations used the Response Evaluation Criteria in Solid Tumors and the Cheson criteria for lymphoma. Multiple-gated acquisition (MUGA) scans were obtained on the q14-day schedule at base line, before course 2 and at each restaging. Laboratory studies (CBC with differential, chemistry 20, prothrombin time and […] thromboplastin time) were performed on days 1, 3, 5, 7 and repeated weakly.

[2] = PK of SNDX-275 in patients with metastatic melanoma (Example 4); details: human, in vivo; for Cmax: 7 mg
Protocol: The concentration after 8 hours after the dose was approximately 2 ng/mL.

[3] = test system: plasma proteins; test: Plasma protein binding; format: in vitro ADME
[4] = Tolerability, DLT and MTD in patients with refractory solid tumors or lymphoma (Example 1); format: in vivo
Protocol: Tolerability was assessed by scheduled clinical assessments. Adverse events (AEs) were assessed using the National Cancer Institute Common Toxicity Criteria (CTC) version 2.0. […] MTD was defined as the highest dose at which no more than 1 of 6 patients experienced DLT during the first treatment cycle.

## Nc1ccccc1NC(=O)c1ccc(CNC(=O)OCc2cccnc2)cc1 [SNDX-275, N-(2-aminophenyl) 4-[N-(pyrid-3-yl)methyloxycarbonylaminomethyl]benzamide]
[1]; Every 14 days, 2 mg/m^2
  DLTs: 0
  No. of Patients With First Course DLT: 0
[1]; Every 14 days, 4 mg/m^2
  DLTs: 0
  No. of Patients With First Course DLT: 0
[1]; Every 14 days, 6 mg/m^2
  No. of Patients With First Course DLT: 1
[1]; Every 14 days, 6 mg/m^2, anorexia, nausea, and vomiting
  DLTs: 3†
[1]; Every 14 days, 8 mg/m^2
  DLTs: 0
  No. of Patients With First Course DLT: 0
[1]; Every 14 days, 10 mg/m^2
  No. of Patients With First Course DLT: 1
[1]; Every 14 days, 10 mg/m^2, anorexia, nausea, and vomiting
  DLTs: 3†
[1]; Every 14 days, 12 mg/m^2
  No. of Patients With First Course DLT: 2
[1]; Every 14 days, 12 mg/m^2, anorexia, nausea, vomiting, and fatigue
  DLTs: 7‡
[1]; Every day x 28/42 days, 2 mg/m^2, 2 patients
  No. of Patients With First Course DLT: 2
[1]; daily schedule (once-a-day×28 every 6 weeks), first dose level 2 mg/m^2
  MTD: exceeded at the first dose level
[1]; human, in vivo
  Abdominal pain: % (All Grades): 7%
  Anemia: No. of Patients (All Grades): 8
  Anorexia: % (All Grades): 36%
  Anorexia: Grade 3: 4
  Anorexia: No. of Patients (All Grades): 10
  Bilirutin: % (All Grades): 14%
  Bilirutin: No. of Patients (All Grades): 4
  Chest pain: % (All Grades): 7%
  Chest pain: No. of Patients (All Grades): 2
  Constipation: % (All Grades): 7%
  Constipation: No. of Patients (All Grades): 2
  Hypermagnesemia: No. of Patients (All Grades): 2
  Hypoalbuminemia: % (All Grades): 64%
  Hypoalbuminemia: No. of Patients (All Grades): 18
  Hypocalcemia: % (All Grades): 21%
  Hypocalcemia: No. of Patients (All Grades): 6
  Hypokalemia: % (All Grades): 4%
  Hypokalemia: No. of Patients (All Grades): 1
  Hyponatremia: % (All Grades): 25%
  Hyponatremia: No. of Patients (All Grades): 7
  Infection w/o neutropenia: % (All Grades): 7%
  Infection w/o neutropenia: Grade 3: 0
  Infection w/o neutropenia: No. of Patients (All Grades): 2
  Leucopenia: % (All Grades): 21%
  Leucopenia: No. of Patients (All Grades): 6
  Libido: % (All Grades): 4%
  Libido: Grade 3: 0
  Libido: No. of Patients (All Grades): 1
  Myalgia: Grade 3: 0
  Myalgia: No. of Patients (All Grades): 1
  Nail changes: % (All Grades): 4%
  Nail changes: Grade 3: 0
  Nail changes: No. of Patients (All Grades): 1
  Nausea: % (All Grades): 64%
  Nausea: Grade 3: 4
  Nausea: No. of Patients (All Grades): 18
  Neurosensory deficits: % (All Grades): 7%
  Neurosensory deficits: No. of Patients (All Grades): 2
  Sinus Tachycardia: No. of Patients (All Grades): 1
  Stomatitis: % (All Grades): 4%
  Stomatitis: No. of Patients (All Grades): 1
  Sweating: % (All Grades): 4%
  Sweating: Grade 3: 0
  Sweating: No. of Patients (All Grades): 1
  Taste disturbance: % (All Grades): 29%
  Taste disturbance: Grade 3: 0
  Taste disturbance: No. of Patients (All Grades): 8
[1]; human, in vivo, po
  tolerability: intolerable
[1]; q14-day schedule
  MTD (and recommended phase II dose): 10 mg/m^2
  SNDX-275-related first course grade 4 adverse events: no SNDX-275-related first course grade 4 adverse events
  dose-limiting toxicities: nausea, vomiting, anorexia and fatigue; also recorded: anorexia, nausea, vomiting and fatigue
  tolerability: reasonably well-tolerated
[1]; q14-day schedule, first course
  Abdominal pain: No. of Patients (All Grades): 2
  Alkaline phosphatase: % (All Grades): 4%
  Alkaline phosphatase: No. of Patients (All Grades): 1
  Allergic reaction: % (All Grades): 4%
  Allergic reaction: Grade 3: 0
  Allergic reaction: No. of Patients (All Grades): 1
  Anemia: % (All Grades): 29%
  Cough: % (All Grades): 4%
  Cough: No. of Patients (All Grades): 1
  Creatinine: % (All Grades): 7%
  Creatinine: No. of Patients (All Grades): 2
  Dehydration: % (All Grades): 11%
  Dehydration: Grade 3: 0
  Dehydration: No. of Patients (All Grades): 3
  Depression: % (All Grades): 4%
  Depression: Grade 3: 0
  Depression: No. of Patients (All Grades): 1
  Diarrhea: % (All Grades): 7%
  Diarrhea: No. of Patients (All Grades): 2
  Dyspepsia: % (All Grades): 21%
  Dyspepsia: No. of Patients (All Grades): 6
  Fatigue: % (All Grades): 54%
  Fatigue: Grade 3: 1
  Fatigue: No. of Patients (All Grades): 15
  Fever: % (All Grades): 4%
  Fever: Grade 3: 0
  Fever: No. of Patients (All Grades): 1
  Flatulence: % (All Grades): 11%
  Flatulence: No. of Patients (All Grades): 3
  GI other: % (All Grades): 7%
  GI other: No. of Patients (All Grades): 2
  Headache: % (All Grades): 50%
  Headache: Grade 3: 0
  Headache: No. of Patients (All Grades): 14
  Hyperglycemia: % (All Grades): 11%
  Hyperglycemia: No. of Patients (All Grades): 3
  Hypermagnesemia: % (All Grades): 7%
  Lymphopenia: % (All Grades): 18%
  Lymphopenia: No. of Patients (All Grades): 5
  Middle ear infection: % (All Grades): 4%
  Middle ear infection: Grade 3: 0
  Middle ear infection: No. of Patients (All Grades): 1
  Muscle weakness: % (All Grades): 4%
  Muscle weakness: Grade 3: 0
  Muscle weakness: No. of Patients (All Grades): 1
  Myalgia: % (All Grades): 4%
  Neutropenia: % (All Grades): 25%
  Neutropenia: No. of Patients (All Grades): 7
  Pain other: % (All Grades): 4%
  Pain other: No. of Patients (All Grades): 1
  Pleuretic pain: % (All Grades): 4%
  Pleuretic pain: No. of Patients (All Grades): 1
  Rhinitis: % (All Grades): 4%
  Rhinitis: No. of Patients (All Grades): 1
  Sinus Tachycardia: % (All Grades): 3%
  Thrombooytopenia: % (All Grades): 36%
  Thrombooytopenia: No. of Patients (All Grades): 10
  Tremors: % (All Grades): 4%
  Tremors: No. of Patients (All Grades): 1
  Urinary electrolyte wasting: % (All Grades): 11%
  Urinary electrolyte wasting: No. of Patients (All Grades): 3
  Vomiting: % (All Grades): 39%
  Vomiting: Grade 3: 4
  Vomiting: No. of Patients (All Grades): 11
[2]; day 1 of cycle 1
  Cmax: 18.5 ng/mL
[2]; day 1 of cycle 2
  Cmax: 23.3 ng/mL
[2]; 7 mg dose, read-out: concentration 8 hours after the dose
  concentration at 8 h: ~2 ng/mL
[3]
  binding to albumin versus other plasma proteins: no greater binding affinity to albumin than other plasma proteins
  protein bound: ≈ 80%
[4]; Schedule A, 2-6 mg/m^2 biweekly
  maximum tolerated dose (MTD): not reached
[4]; human, in vivo
  drug-related grade 4 adverse events: No drug-related grade 4 (gr4) adverse events (AEs) were reported
